Earlier results on one compound are cited in PubChem BioAssay AID1259409 (Chemical Carcinogenesis Research Information System (CCRIS), 2018).

Structures are written as SMILES. Values joined by “and” are separate entries in the source; they are usually repeats but may differ in a detail not shown here. Identical values can stand only once.

The data set has as its system rodent chemically induced tumor inhibition, incidence and multiplicity. The experiment in a line: CCRIS tumor inhibitor studies. The following applies: Route [Inhibitor]: ORAL.

As for `[Se]`, the “tumour outcome (control, treated, inhibition, significance)” value is, setting by setting: (Carcinogen: 1,2-DIMETHYLHYDRAZINE, 540-73-8, Dose [Inhibitor]: 0, 0.2, 5 PPM IN DIET BEGINNING 1 D PRIOR TO CARCINOGEN TREATMENT AND CONTINUING FOR DURATION OF STUDY (STUDY DURATION:, Dose [Inhibitor]: 0, 0.2, 5 PPM IN DIET BEGINNING 1 D PRIOR TO CARCINOGEN TREATMENT AND CONTINUING FOR DURATION OF STUDY (STUDY DURATION:, Species: RAT, Strain/Sex: SPRAGUE-DAWLEY/MALE, Target Tissue: Type of Lesion: DISTAL COLON: ADENOCARCINOMA, Dose [Carcinogen]: 20 MG/KG 1/WK FOR 20 WK, Promoter: NONE USED) 94%, 81%, 14%, not significant; (Carcinogen: 3,2'-DIMETHYL-4-AMINOBIPHENYL, 13394-86-0, Dose [Inhibitor]: 0, 2 PPM IN BASAL DIET BEGINNING POST CARCINOGEN TREATMENT AND CONTINUING FOR 40 WK (STUDY DURATION: 60 WK), Species: RAT, Strain/Sex: F344/MALE, Target Tissue: Type of Lesion: LARGE INTESTINE: ADENOMA AND CARCINOMA, Dose [Carcinogen]: 50 MG/KG 1/2 WK FOR 20 WK TO RATS MAINTAINED ON ETHINYL ESTRADIOL CONTAINING DIET (0.75 PPM) FOR 1 WK CYCLED WITH ETHINY, Promoter: ETHINYL ESTRADIOL, 57-63-6) 3/10 (30%), 0/11 (0%), 100%, not significant; (Carcinogen: 3,2'-DIMETHYL-4-AMINOBIPHENYL, 13394-86-0, Dose [Inhibitor]: 0, 2 PPM IN BASAL DIET BEGINNING POST CARCINOGEN TREATMENT AND CONTINUING FOR 40 WK (STUDY DURATION: 60 WK), Species: RAT, Strain/Sex: F344/MALE, Target Tissue: Type of Lesion: PANCREAS: ACINAR CELL NODULE, Dose [Carcinogen]: 50 MG/KG 1/2 WK FOR 20 WK TO RATS MAINTAINED ON ETHINYL ESTRADIOL CONTAINING DIET (0.75 PPM) FOR 1 WK CYCLED WITH ETHINY, Promoter: ETHINYL ESTRADIOL, 57-63-6) 4/10 (40%), 4/11 (36%), 10%, not significant; (Carcinogen: 3,2'-DIMETHYL-4-AMINOBIPHENYL, 13394-86-0, Dose [Inhibitor]: 0, 2 PPM IN BASAL DIET BEGINNING POST CARCINOGEN TREATMENT AND CONTINUING FOR 40 WK (STUDY DURATION: 60 WK), Species: RAT, Strain/Sex: F344/MALE, Target Tissue: Type of Lesion: PREPUTIAL GLAND: ADENOMA AND CARCINOMA, Dose [Carcinogen]: 50 MG/KG 1/2 WK FOR 20 WK TO RATS MAINTAINED ON ETHINYL ESTRADIOL CONTAINING DIET (0.75 PPM) FOR 1 WK CYCLED WITH ETHINY, Promoter: ETHINYL ESTRADIOL, 57-63-6) 5/10 (50%), 6/11 (55%), -10%, not significant; (Carcinogen: 3,2'-DIMETHYL-4-AMINOBIPHENYL, 13394-86-0, Dose [Inhibitor]: 0, 2 PPM IN BASAL DIET BEGINNING POST CARCINOGEN TREATMENT AND CONTINUING FOR 40 WK (STUDY DURATION: 60 WK), Species: RAT, Strain/Sex: F344/MALE, Target Tissue: Type of Lesion: SMALL INTESTINE: ADENOMA AND ADENOCARCINOMA, Dose [Carcinogen]: 50 MG/KG 1/2 WK FOR 20 WK TO RATS MAINTAINED ON ETHINYL ESTRADIOL CONTAINING DIET (0.75 PPM) FOR 1 WK CYCLED WITH ETHINY, Promoter: ETHINYL ESTRADIOL, 57-63-6) 2/10 (20%), 2/11 (18%), 10%, not significant; (Carcinogen: 3,2'-DIMETHYL-4-AMINOBIPHENYL, 13394-86-0, Dose [Inhibitor]: 0, 2 PPM IN BASAL DIET BEGINNING POST CARCINOGEN TREATMENT AND CONTINUING FOR 40 WK (STUDY DURATION: 60 WK), Species: RAT, Strain/Sex: F344/MALE, Target Tissue: Type of Lesion: SUBCUTIS: TUMOR, Dose [Carcinogen]: 50 MG/KG 1/2 WK FOR 20 WK TO RATS MAINTAINED ON ETHINYL ESTRADIOL CONTAINING DIET (0.75 PPM) FOR 1 WK CYCLED WITH ETHINY, Promoter: ETHINYL ESTRADIOL, 57-63-6) 1/10 (10%), 0/11 (0%), 100%, not significant. The “tumour outcome (control, treated, inhibition, significance)” value is reported as 2/10 (20%), 2/11 (18%), 10%, not significant (Carcinogen: 3,2'-DIMETHYL-4-AMINOBIPHENYL, 13394-86-0, Dose [Inhibitor]: 0, 2 PPM IN BASAL DIET BEGINNING POST CARCINOGEN TREATMENT AND CONTINUING FOR 40 WK (STUDY DURATION: 60 WK), Species: RAT, Strain/Sex: F344/MALE, Target Tissue: Type of Lesion: ZYMBAL GLAND: ADENOMA AND CARCINOMA, Dose [Carcinogen]: 50 MG/KG 1/2 WK FOR 20 WK TO RATS MAINTAINED ON ETHINYL ESTRADIOL CONTAINING DIET (0.75 PPM) FOR 1 WK CYCLED WITH ETHINY, Promoter: ETHINYL ESTRADIOL, 57-63-6); 5/10 (50%), 4/11 (36%), 28%, not significant (Carcinogen: 3,2-DIMETHYL-4-AMINOBIPHENYL, 13394-86-0, Dose [Inhibitor]: 0, 2 PPM IN BASAL DIET BEGINNING POST CARCINOGEN TREATMENT AND CONTINUING FOR 40 WK (STUDY DURATION: 60 WK), Species: RAT, Strain/Sex: F344/MALE, Target Tissue: Type of Lesion: PROSTATE: CARCINOMA, Dose [Carcinogen]: 50 MG/KG 1/2 WK FOR 20 WK TO RATS MAINTAINED ON ETHINYL ESTRADIOL CONTAINING DIET (0.75 PPM) FOR 1 WK CYCLED WITH ETHINY, Promoter: ETHINYL ESTRADIOL, 57-63-6); 5/31(16%), 1/22(5%), 69%, p 0.025 (Carcinogen: DINITROSOPIPERAZINE, 140-79-4, Dose [Inhibitor]: 0, 2 UG/G DIET IN YEAST CONCURRENTLY WITH CARCINOGEN AND CONTINUED FOR STUDY DURATION (STUDY DURATION: 13.5 MO), Species: RAT, Strain/Sex: CD-1/MALE, FEMALE, Target Tissue: Type of Lesion: NASAL PHARYNX: CARCINOMA, Dose [Carcinogen]: 1.5 MG IN WATER 2/WK FOR 5 WK FOLLOWED BY 3 MG IN WATER 2/WK FOR 17.5 WK (TOTAL DOSE: 120 MG)); 64%, 25%, 61%, p<0.01 (Carcinogen: NONE USED, Dose [Inhibitor]: 0.5 PPM IN DRINKING WATER DAILY FOR DURATION OF STUDY (STUDY DURATION: 2 YR), Species: MOUSE, Strain/Sex: C3H/FEMALE, Target Tissue: Type of Lesion: MAMMARY GLAND: ADENOCARCINOMA, Promoter: NONE USED); 65%, 72%, -11%, not significant (Carcinogen: NONE USED, Dose [Inhibitor]: 2 PPM IN A 10% BUTTER DIET DAILY FOR DURATION OF STUDY (STUDY DURATION: 2 YR), Species: MOUSE, Strain/Sex: C3H/FEMALE, Target Tissue: Type of Lesion: MAMMARY GLAND: ADENOCARCINOMA, Promoter: NONE USED); 70%, 72%, -3%, not significant (Carcinogen: NONE USED, Dose [Inhibitor]: 2 PPM IN A 10% CORN OIL DIET DAILY FOR DURATION OF STUDY (STUDY DURATION: 2 Y R), Species: MOUSE, Strain/Sex: C3H/FEMALE, Target Tissue: Type of Lesion: MAMMARY GLAND: ADENOCARCINOMA, Promoter: NONE USED). Moreover, the “tumour outcome (control, treated, inhibition, significance)” value is 53%, 52%, 2%, not significant (Carcinogen: NONE USED, Dose [Inhibitor]: 2 PPM IN A 10% LARD DIET DAILY FOR DURATION OF STUDY (STUDY DURATION: 2 YR), Species: MOUSE, Strain/Sex: C3H/FEMALE, Target Tissue: Type of Lesion: MAMMARY GLAND: ADENOCARCINOMA, Promoter: NONE USED); 63%, 65%, -3%, not significant (Carcinogen: NONE USED, Dose [Inhibitor]: 2 PPM IN A 10% RAPE SEED OIL DIET DAILY FOR DURATION OF STUDY (STUDY DURATION : 2 YR), Species: MOUSE, Strain/Sex: C3H/FEMALE, Target Tissue: Type of Lesion: MAMMARY GLAND: ADENOCARCINOMA, Promoter: NONE USED); 44%, 40%, 9%, not calculated and 64%, 25%, 61%, p<0.01 (Carcinogen: NONE USED, Dose [Inhibitor]: 2 PPM IN DRINKING WATER DAILY FOR DURATION OF STUDY (STUDY DURATION: 2 YR), Species: MOUSE, Strain/Sex: C3H/FEMALE, Target Tissue: Type of Lesion: MAMMARY GLAND: ADENOCARCINOMA, Promoter: NONE USED).
